# From patent US8974823B2, “Solid compositions of low-solubility drugs and poloxamers” (Bend Research, Inc., priority 2003, dated 2015)
# How the values were obtained:
# [1] = in vivo test of oral powder for constitution in fasted male beagle dogs (plasma Drug 4); conditions: dog, oral gavage OPC
# Protocol: The composition of Example 16 was used as oral powders for constitution (OPC) for evaluating the performance of the compositions in in vivo tests using male beagle dogs. The OPC was dosed as a suspension in a solution containing 0.5 wt % […] METHOCEL® (from Dow Chemical Co.), and was prepared as follows. First, 7.5 g of METHOCEL® was weighed out and added slowly to approximately 490 mL of water at 90-100° C. to form a METHOCEL® suspension. After all the METHOCELS® was added, 1000 mL of cool/room temperature water was added to the suspension, which was then placed in an ice water bath. When all of the METHOCEL® had dissolved, 2.55 g of polyoxyethylene 20 sorbitan monooleate (TWEEN 80) were added and the mixture stirred until the TWEEN 80 had dissolved, thus forming a stock suspension solution.
# To form the OPC, sufficient quantity of the test composition to result in a 90 mgA amount of Drug 4 was weighed and placed into a mortar. (“mgA” refers to mg of active drug.) A 20 mL quantity of the stock suspension solution was added to the mortar and the test composition was mixed with a pestle. […]
# Six male beagle dogs were each dosed with the OPC. […] Whole blood samples were taken from the jugular vein and analyzed for the concentration of Drug 4 using the following procedure. […]
# [2] = glass transition temperature (Tg) of the drug; format: physicochemical
# Protocol: In a first aspect, the invention comprises a solid composition comprising a plurality of particles. The particles comprise a low-solubility drug and a poloxamer. The drug is in intimate contact with the poloxamer in the particles. Collectively, the drug and poloxamer constitute at least 50 wt % of the particles. At least a substantial portion of the drug in the composition is amorphous. The Tg of the drug is at least 50° C. Unless otherwise noted, as used herein the Tg refers to the Tg measured at less than 10% RH.
# Such Tg values may represent that of drug dispersed in the amorphous portions of the poloxamer or the Tg of drug-rich phases or domains. […] The Tg of the drug may be at least about 60° C., at least about 70° C., or even at least about 80° C. The Tg of a drug can be determined using standard analytical techniques well known in the art, including by a dynamic mechanical analyzer (DMA), a dilatometer, a dielectric analyzer, and by differential scanning calorimetry (DSC).
# Log P of the drug = conditions: for logP: octanol/water, Log P
# From the text: A common measure of hydrophobicity is Log P, defined as the base 10 logarithm of the ratio of the drug solubility in octanol to the drug solubility in water. Log P may be measured experimentally or calculated using methods known in the art.
# [3] = aqueous solubility of the drug; conditions: aqueous solution
# [4] = drugs of prior-art compositions, background section; cited from earlier work
smiles,measurement,setting,value
"CCOC(=O)N1c2ccc(C(F)(F)F)cc2[C@@H](N(Cc2cc(C(F)(F)F)cc(C(F)(F)F)c2)C(=O)OC)C[C@H]1CC [Control C7, Torcetrapib]",Cmax,[1]; 90 mgA Drug 4,< 100 ng/mL
same,AUC(0-t),"[1]; 90 mgA Drug 4, read-out: AUC(0–24)",< 200 ng·h/mL
"Cc1ncccc1CNC(=O)c1ccc2c(c1)CC[C@@H]1C[C@@](O)(CCC(F)(F)F)CC[C@@]21Cc1ccccc1 [Drug 2, 2-phenanthrenecarboxamide,4b,5,6,7,8,8a,9,10-octahydro-7-hydroxy-N-[(2-methyl-3-pyridinyl)methyl]-4b-(phenylmethyl)-7-(3,3,3-trifluoropropyl)-, (4bS,7S,8aR)-]",Tg,"[2]; Table B, unless noted Tg measured at less than 10% RH",99 °C
same,"Tg,drug",[2]; at 0% RH,99 °C
same,Log P,Log P of the drug,about 6.2
"Cc1c(O)cccc1C(=O)N[C@@H](CSc1ccccc1)[C@H](O)CN1C[C@H]2CCCC[C@H]2C[C@H]1C(=O)NC(C)(C)C [Drug 3, N-(1,1-dimethylethyl) decahydro-2-[(2R,3R)-2-hydroxy-3-[(3-hydroxy-2-methylbenzoyl)amino]-4-(phenylthio)butyl]-3-isoquinolinecarboxamide (3s, 4aS, 8aS)-monomethanesulfonate]",solubility,[3],~6 µg/mL
"CCOC(=O)N1c2ccc(C(F)(F)F)cc2[C@@H](N(Cc2cc(C(F)(F)F)cc(C(F)(F)F)c2)C(=O)OC)C[C@H]1CC [Drug 4, [2R,4S] 4-[(3,5-bis-trifluoromethyl-benzyl)-methoxycarbonyl-amino]-2-ethyl-6-trifluoromethyl-3,4-dihydro-2H-quinoline-1-carboxylic acid ethyl ester]","Tg,drug",[2]; at ambient RH,about 28 °C
same,Log P,Log P of the drug,7.3
same,logP,Log P of the drug,~7.5
"CCc1cc(Oc2cccc(N(Cc3cccc(OC(F)(F)C(F)F)c3)C[C@@H](O)C(F)(F)F)c2)ccc1Cl [Drug 5, (2R)-3-[[3-(4-chloro-3-ethylphenoxy)phenyl][[3-(1,1 ,2,2-tetrafluoroethoxy)phenyl]methyl]amino]-1,1,1-trifluoro-2-propanol]","Tg,drug",[2]; RH not stated,about −15 °C
same,Log P,Log P of the drug,10.1
same,logP,Log P of the drug,~10
COc1ccccc1OCCNCC(O)COc1cccc2[nH]c3ccccc3c12 (stereo not shown) [carvedilol],glass transition temperature (Tg),[4],about 39 °C
